For one data set, the target named is EZH2 enzyme complex (Homo sapiens (Human), UniProt Q15910). The data set is described as follows: Test on EZH2 inhibitory activity (TR-FRET). The format is biochemical. To be noted: EZH2 enzyme complex 25 ng/uL, histone H3 peptide 4 uM, SAM 2 uM, 300 min; read-out: IC50 of EZH2 inhibition.
In the next data set the test system is WSU-DLCL2. The data set is described as follows: Methylated lysine of histone-H3 (H3K27Me3) detection by ELISA, WSU-DLCL2 cells. The format is cell-based. To be noted: Homo sapiens, WSUDLCL2, 168 h; WSU-DLCL2, 7 days treatment, H3K27Me3 normalized to total histone-3; read-out: IC50 of cell methylation, WSU-DLCL2. In a few lines:
(§1)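 Cells were treated 7 days with compound (4-fold dilutions, 20 uM-0.009 nM), then lysed hypotonically with NaCl adjusted to ~100 mM. Lysate-coated plates were probed by ELISA for H3K27Me3 and total H3 (TMB, A450). Methylation signal was normalised to total H3 before curve fitting.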

A further data set relates to Pfeiffer. The data set is described as follows: Methylated lysine of histone-H3 (H3K27Me3) detection by ELISA, Pfeiffer cells. The format is cell-based, human. To be noted: Homo sapiens, 168 h, 7 days treatment, H3K27Me3 normalized to total histone-3, read-out: IC50 of cell methylation, Pfeiffer. The method, boiled down: as §1
Data set [1] is described as follows: In vivo pharmacokinetic properties in mice. Also on record: species or system mouse. To be noted: male ICR mice; for F: intragastric 250 mg/kg vs intravenous 5 mg/kg; for CL / AUC(0-inf) / Cmax / Tmax / half-life: single intravenous 5 mg/kg and intragastric 250 mg/kg study; for AUC(0-inf) / Cmax / Tmax / half-life: mouse, plasma; for AUC(0-inf) / Cmax / Tmax: oral; for Cmax: read-out: Cmax; for Tmax: read-out: Tmax. Here is the method: Male ICR mice were divided into different groups with 3 mice in each group, and single intravenous injection and single intragastric administration were conducted respectively. The compounds were formulated with 10% DMSO/90% (20% Captisol) to reach an appropriate concentration and then administered intravenously at 5 mg/kg. The compounds were formulated with 0.5% CMC-Na/0.1% Tween 80 (pH=3-4) to reach an appropriate concentration and then administered intragastrically at 250 mg/kg. Blood was taken at 5 min, 15 min, 30 min, 1 h, 2 h, 4 h, 6 h, 8 h and 24 h after administration, and then subjected to EDTA-K2 anticoagulation. The concentration of the compound in the plasma was quantitatively detected by an LC-MS/MS method.

The structures appear in SMILES notation. Some results are limits rather than exact numbers.

EZH2 enzyme complex, sequence (Q15910 whole entry): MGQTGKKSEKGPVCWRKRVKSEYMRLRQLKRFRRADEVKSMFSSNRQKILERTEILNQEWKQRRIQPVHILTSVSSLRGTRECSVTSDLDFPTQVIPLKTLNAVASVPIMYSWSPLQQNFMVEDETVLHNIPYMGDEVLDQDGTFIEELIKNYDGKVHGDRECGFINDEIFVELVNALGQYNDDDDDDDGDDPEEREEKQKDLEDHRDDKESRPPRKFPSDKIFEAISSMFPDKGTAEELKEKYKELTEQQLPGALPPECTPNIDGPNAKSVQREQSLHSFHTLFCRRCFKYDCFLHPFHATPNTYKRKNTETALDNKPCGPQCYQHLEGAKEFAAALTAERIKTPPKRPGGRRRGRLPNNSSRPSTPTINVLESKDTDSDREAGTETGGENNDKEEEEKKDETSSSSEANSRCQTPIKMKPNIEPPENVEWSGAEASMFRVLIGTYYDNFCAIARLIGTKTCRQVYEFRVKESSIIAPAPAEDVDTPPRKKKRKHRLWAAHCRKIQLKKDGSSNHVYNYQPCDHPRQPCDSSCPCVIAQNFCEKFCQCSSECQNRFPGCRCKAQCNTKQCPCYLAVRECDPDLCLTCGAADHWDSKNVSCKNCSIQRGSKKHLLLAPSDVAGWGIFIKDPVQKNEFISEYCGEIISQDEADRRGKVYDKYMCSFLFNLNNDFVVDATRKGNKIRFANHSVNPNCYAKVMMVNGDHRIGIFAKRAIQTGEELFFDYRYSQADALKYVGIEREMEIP
EZH2 enzyme complex, sequence (O75530 whole entry partner): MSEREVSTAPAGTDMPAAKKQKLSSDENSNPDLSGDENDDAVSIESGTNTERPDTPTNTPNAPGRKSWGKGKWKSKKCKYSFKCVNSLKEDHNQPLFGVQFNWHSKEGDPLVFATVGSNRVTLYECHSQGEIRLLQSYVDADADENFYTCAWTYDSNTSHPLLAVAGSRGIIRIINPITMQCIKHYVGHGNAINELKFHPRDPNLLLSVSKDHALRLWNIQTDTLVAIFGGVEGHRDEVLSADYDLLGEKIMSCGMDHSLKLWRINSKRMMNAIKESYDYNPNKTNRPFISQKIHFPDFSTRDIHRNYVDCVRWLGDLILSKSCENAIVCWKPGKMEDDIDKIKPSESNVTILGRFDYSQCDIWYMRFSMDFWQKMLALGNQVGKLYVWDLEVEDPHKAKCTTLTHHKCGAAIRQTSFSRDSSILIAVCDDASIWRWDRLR
EZH2 enzyme complex, sequence (Q15022 whole entry partner): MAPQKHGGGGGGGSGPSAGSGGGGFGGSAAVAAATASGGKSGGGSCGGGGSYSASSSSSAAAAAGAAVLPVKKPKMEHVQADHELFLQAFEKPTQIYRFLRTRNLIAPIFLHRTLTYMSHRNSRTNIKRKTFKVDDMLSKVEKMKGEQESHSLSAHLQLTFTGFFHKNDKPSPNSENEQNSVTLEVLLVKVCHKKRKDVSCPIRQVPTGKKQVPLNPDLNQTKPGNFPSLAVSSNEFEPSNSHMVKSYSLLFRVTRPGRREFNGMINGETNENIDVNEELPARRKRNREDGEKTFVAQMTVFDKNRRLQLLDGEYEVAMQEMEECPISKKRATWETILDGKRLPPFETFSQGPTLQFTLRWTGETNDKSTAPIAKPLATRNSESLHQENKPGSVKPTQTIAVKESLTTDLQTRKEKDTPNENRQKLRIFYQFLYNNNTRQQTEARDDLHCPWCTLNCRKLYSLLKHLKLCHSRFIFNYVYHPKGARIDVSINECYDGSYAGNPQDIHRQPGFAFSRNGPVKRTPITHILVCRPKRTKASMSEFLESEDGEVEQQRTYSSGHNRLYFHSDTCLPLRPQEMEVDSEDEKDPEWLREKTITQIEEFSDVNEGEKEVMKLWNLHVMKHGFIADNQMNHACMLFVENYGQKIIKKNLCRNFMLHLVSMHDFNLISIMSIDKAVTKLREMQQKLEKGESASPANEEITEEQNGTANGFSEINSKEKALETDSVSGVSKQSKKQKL

In the case of `CCN(c1cc(O[C@H]2C[C@H](N3C[C@@H](C)O[C@@H](C)C3)C2)cc(C(=O)NCc2c(C)cc(C)[nH]c2=O)c1C)C1CC2CCC(C1)O2` (stereo partly drawn) [Example 47, 3-((8-oxabicyclo[3.2.1]octan-3-yl)(ethyl)amino)-N-((4,6-dimethyl-2-oxo-1,2-dihydropyridin-3-yl)methyl)-5-(trans-3-(cis-2,6-dimethylmorpholinyl)cyclobutoxy)-2-methylbenzamide], the IC50 at EZH2 enzyme complex lay in the range of 10 to 100 nM. Also, the IC50 in the data set with WSU-DLCL2 was in the range of 50 to 500 nM. Moreover, the IC50 in the data set with Pfeiffer fell in the range of 50 to 500 nM. In addition, in data set [1], the F came to 118.1%, the CL is 103 ± 11.9 mL/min/lg, the AUC(0-inf) was determined as 48000 ng·h/mL and the Cmax was found to be 19600 ± 8050 ng/mL. In addition, in data set [1], the Tmax stood at 0.67 ± 0.29 h and the half-life is 3.1 ± 1.04 h.

As for `CCN(c1cc(O[C@H]2C[C@H](N3CCN(C(C)=O)CC3)C2)cc(C(=O)NCc2c(C)cc(C)[nH]c2=O)c1C)C1CCOCC1` [Example 26, trans-5-(3-(4-acetylpiperazin-1-yl)cyclobutoxy)-N-((4,6-dimethyl-2-oxo-1,2-dihydropyridin-3-yl)methyl)-3-(ethyl(tetrahydro-2H-pyran-4-yl)amino)-2-methylbenzamide], the values for the half-inhibitory concentration (IC50) on EZH2 enzyme complex, in the data set with WSU-DLCL2 and in the data set with Pfeiffer were 10 to 100 nM, 50 to 500 nM and less than 50 nM, respectively.

In the case of `CCN(c1cc(O[C@H]2C[C@H](N3CC4CCC(C3)O4)C2)cc(C(=O)NCc2c(C)cc(C)[nH]c2=O)c1Cl)C1CCOCC1` [Example 49, 5-(trans-3-(8-oxa-3-azabicyclo[3.2.1]octan-3-yl)cyclobutoxy)-2-chloro-N-((4,6-dimethyl-2-oxo-1,2-dihydropyridin-3-yl)methyl)-3-(ethyl(tetrahydro-2H-pyran-4-yl)amino)benzamide], the IC50 was 10 to 100 nM at EZH2 enzyme complex, 50 to 500 nM with WSU-DLCL2 and greater than 1000 nM with Pfeiffer.

On to `CCN(c1cc(C2CC2CN2CCNCC2)cc(C(=O)NCc2c(C)cc(C)[nH]c2=O)c1C)C1CCOCC1` (stereo not drawn) [Example 73, N-((4,6-dimethyl-2-oxo-1,2-dihydropyridin-3-yl)methyl)-3-(ethyl(tetrahydro-2H-pyran-4-yl)amino)-2-methyl-5-(2-(piperazin-1-ylmethyl)cyclopropyl)benzamide], for which the IC50 on EZH2 enzyme complex lay within 10 to 100 nM; in the data set on WSU-DLCL2, 50 to 500 nM; with Pfeiffer, 50 to 500 nM.

For `CCN(c1cc(O[C@H]2C[C@H](CN3C[C@@H](C)O[C@@H](C)C3)C2)cc(C(=O)NCc2c(C)cc(C)[nH]c2=O)c1C)C1CCOCC1` [Example 31, N-((4,6-dimethyl-2-oxo-1,2-dihydropyridin-3-yl)methyl)-5-(trans-3-((cis-2,6-dimethylmorpholinyl)methyl)cyclobutoxy)-3-(ethyl(tetrahydro-2H-pyran-4-yl)amino)-2-methylbenzamide], the IC50 on EZH2 enzyme complex is 10 to 100 nM; with WSU-DLCL2, less than 50 nM; with Pfeiffer it was less than 50 nM.

Consider `CCN(c1cc(C2CCC2)cc(C(=O)NCc2c(C)cc(C)[nH]c2=O)c1C)C1CCOCC1` [Example 15, 5-cyclobutyl-N-((4,6-dimethyl-2-oxo-1,2-dihydropyridin-3-yl)methyl)-3-(ethyl(tetrahydro-2H-pyran-4-yl)amino)-2-methylbenzamide], for which the IC50 was 10 to 100 nM at EZH2 enzyme complex, 50 to 500 nM in the data set on WSU-DLCL2 and less than 50 nM in the data set with Pfeiffer.

On to `CCN(c1cc(O[C@H]2C[C@H](N3CCC(C)CC3)C2)cc(C(=O)NCc2c(C)cc(C)[nH]c2=O)c1Cl)C1CCOCC1` [Example 59, 2-chloro-N-((4,6-dimethyl-2-oxo-1,2-dihydropyridin-3-yl)methyl)-3-(ethyl(tetrahydro-2H-pyran-4-yl)amino)-5-(trans-3-(4-methylpiperidin-1-yl)cyclobutoxy)benzamide], for which, on EZH2 enzyme complex, the IC50 was less than 10 nM. In addition, the IC50 with WSU-DLCL2 was less than 50 nM. For the same compound, the IC50 with Pfeiffer lay within 50 to 500 nM. Further, in data set [1], the F is reported as 60.5%, the CL worked out at 59.1 ± 6.95 mL/min/lg, the AUC(0-inf) worked out at 43000 ng·h/mL and the Cmax turned out to be 16600 ng/mL. For the same compound, in data set [1], the Tmax was determined as 0.8 ± 0.27 h and the half-life was 6.2 ± 3.83 h.

Consider `CCN1CCN([C@H]2C[C@H](Oc3cc(C(=O)NCc4c(C)cc(C)[nH]c4=O)c(C)c(N(CC)C4CCOCC4)c3)C2)CC1` [Example 24, N-((4,6-dimethyl-2-oxo-1,2-dihydropyridin-3-yl)methyl)-3-(ethyl(tetrahydro-2H-pyran-4-yl)amino)-5-(trans-3-(4-ethylpiperazin-1-yl)cyclobutoxy)-2-methylbenzamide], for which the IC50 at EZH2 enzyme complex is less than 10 nM; in the data set with WSU-DLCL2, 50 to 500 nM; in the data set with Pfeiffer it was less than 50 nM.

In the case of `CCN1CCN([C@H]2C[C@@H](Oc3cc(C(=O)NCc4c(C)cc(C)[nH]c4=O)c(C)c(N(CC)C4CCOCC4)c3)C2)CC1` [Example 23, N-((4,6-dimethyl-2-oxo-1,2-dihydropyridin-3-yl)methyl)-3-(ethyl(tetrahydro-2H-pyran-4-yl)amino)-5-(cis-3-(4-ethylpiperazin-1-yl)cyclobutoxy)-2-methylbenzamide], the values for the IC50 at EZH2 enzyme complex, in the data set on WSU-DLCL2 and in the data set with Pfeiffer were 10 to 100 nM, greater than 1000 nM and less than 50 nM, respectively.

Turning to `CCN(c1cc(O[C@H]2C[C@@H](N3CCC(C)CC3)C2)cc(C(=O)NCc2c(C)cc(C)[nH]c2=O)c1C)C1CCOCC1` [Example 56, N-((4,6-dimethyl-2-oxo-1,2-dihydropyridin-3-yl)methyl)-3-(ethyl(tetrahydro-2H-pyran-4-yl)amino)-2-methyl-5-(cis-3-(4-methylpiperidin-1-yl)cyclobutoxy)benzamide], the IC50 on EZH2 enzyme complex fell in the range of 10 to 100 nM; in the data set with WSU-DLCL2 it was 50 to 500 nM; in the data set with Pfeiffer, 50 to 500 nM.

As for `CCN(c1cc(O[C@H]2C[C@@H](N3CCNCC3)C2)cc(C(=O)NCc2c(C)cc(C)[nH]c2=O)c1C)C1CCOCC1` [Example 17, N-((4,6-dimethyl-2-oxo-1,2-dihydropyridin-3-yl)methyl)-3-(ethyl(tetrahydro-2H-pyran-4-yl)amino)-2-methyl-5-(cis-3-(piperazin-1-yl)cyclobutoxy)benzamide], the IC50 at EZH2 enzyme complex was less than 10 nM; with WSU-DLCL2, 50 to 500 nM; with Pfeiffer, less than 50 nM.

For the compound `CCN(c1cc(OC2CCC2)cc(C(=O)NCc2c(C)cc(C)[nH]c2=O)c1C)C1CCOCC1` [Example 1, 5-cyclobutoxy-N-((4,6-dimethyl-2-oxo-1,2-dihydropyridin-3-yl)methyl)-3-(ethyl(tetrahydro-2H-pyran-4-yl)amino)-2-methylbenzamide], the concentration for half-maximal inhibition (IC50) on EZH2 enzyme complex is 10 to 100 nM; in the data set on WSU-DLCL2, 50 to 500 nM; in the data set on Pfeiffer it was less than 50 nM.

Turning to `CCN(c1cc(O[C@H]2C[C@@H](CN3CCOCC3)C2)cc(C(=O)NCc2c(C)cc(C)[nH]c2=O)c1C)C1CCOCC1` [Example 6, N-((4,6-dimethyl-2-oxo-1,2-dihydropyridin-3-yl)methyl)-3-(ethyl(tetrahydro-2H-pyran-4-yl)amino)-2-methyl-5-(cis-3-(morpholinylmethyl)cyclobutoxy)benzamide], the figures for the IC50 on EZH2 enzyme complex, in the data set with WSU-DLCL2 and with Pfeiffer were 10 to 100 nM, 50 to 500 nM and less than 50 nM, respectively.

For `CCN(c1cc(O[C@H]2C[C@H](N3C[C@@H](C)O[C@@H](C)C3)C2)cc(C(=O)NCc2c(C)cc(C)[nH]c2=O)c1Cl)C1CCOCC1` [Example 48, 2-chloro-N-((4,6-dimethyl-2-oxo-1,2-dihydropyridin-3-yl)methyl)-5-(trans-3-(cis-2,6-dimethylmorpholinyl)cyclobutoxy)-3-(ethyl(tetrahydro-2H-pyran-4-yl)amino)benzamide], the IC50 on EZH2 enzyme complex was 10 to 100 nM; with WSU-DLCL2, 50 to 500 nM; in the data set on Pfeiffer it was greater than 1000 nM.

In the case of `CCN(c1cc(O[C@H]2C[C@@H](N3CCN(C(C)=O)CC3)C2)cc(C(=O)NCc2c(C)cc(C)[nH]c2=O)c1C)C1CCOCC1` [Example 25, cis-5-(3-(4-acetylpiperazin-1-yl)cyclobutoxy)-N-((4,6-dimethyl-2-oxo-1,2-dihydropyridin-3-yl)methyl)-3-(ethyl(tetrahydro-2H-pyran-4-yl)amino)-2-methylbenzamide], the figures for the IC50 at EZH2 enzyme complex, in the data set on WSU-DLCL2 and in the data set on Pfeiffer were 10 to 100 nM, less than 50 nM and less than 50 nM, respectively.

For the compound `CCN(c1cc(C2CC2CN2CCN(C)CC2)cc(C(=O)NCc2c(C)cc(C)[nH]c2=O)c1C)C1CCOCC1` (stereo not drawn) [Example 74, N-((4,6-dimethyl-2-oxo-1,2-dihydropyridin-3-yl)methyl)-3-(ethyl(tetrahydro-2H-pyran-4-yl)amino)-2-methyl-5-(2-((4-methylpiperazin-1-yl)methyl)cyclopropyl)benzamide], the values for the IC50 on EZH2 enzyme complex, with WSU-DLCL2 and with Pfeiffer were 10 to 100 nM, 50 to 500 nM and less than 50 nM, respectively.

The record behind these values is patent US12390472B2 (SUZHOU SINOVENT PHARMACEUTICALS CO., LTD., priority 2018, dated 2025).
